Laboratory results reported in patent publication US20250090550A1, “INJECTABLE COMPOSITION COMPRISING CYTOLYTIC COMPOUND IN GEL, GEL-FORMING SOLUTION OR GEL-FORMING SUSPENSION FOR REDUCTION OF FAT” (GLONOVA PHARMA CO., LTD., priority 2022, published 2025).
Structures can show the parent of a compound that is named as a salt.

Columns and labels:
fat tissue = details: after injection of deoxycholic acid solution; cited from earlier work
[1] = Gel formation of mixtures added to 0.9% saline, placed at 37° C.; assay type: physicochemical
Experimental: In the following examples, DCA-Na solutions were mixed with other components to prepare an injectable composition. Unless otherwise stated, the requirements for the final concentration of DCA-Na in the obtained compositions were ≥70% of initial solutions (≥36.96 mg/mL for 5% solution, ≥7.39 mg/mL for 1% solution). The appearances after mixing DCA-Na with other components were observed after placing at 25, 37 and 42° C. for 20, 30, 45, 60 and 120 minutes. 200 μL of the mixtures were also added to 200 μL 0.9% saline respectively and their appearances were also observed after placing at 37° C. for 20, 30, 45, 60 and 120 minutes. Photos were taken and showing in the figures.

Structure (SMILES)	permeation into fat tissue after injection (fat tissue)	suitable concentration of lidocaine HCl mixing with 1% DCA-Na solution ([1]; mixtures of 1% DCA-Na and LA + lidocaine HCl)	tolerable concentration of lidocaine HCl mixing with 5% DCA-Na solution ([1]; mixtures of 5% DCA-Na and LA in lidocaine HCl)
C[C@H](CCC(=O)O)[C@H]1CC[C@H]2[C@@H]3CC[C@@H]4C[C@H](O)CC[C@]4(C)[C@H]3C[C@H](O)[C@]12C [deoxycholic acid, Deoxycholic acid]	more than 1 centimeter		
CCN(CC)CC(=O)Nc1c(C)cccc1C [lidocaine HCl]		around 3 mg/mL	up to 6 mg/mL
